Results reported in patent US6743785B2, “Agents and methods for the treatment of proliferative diseases” (Eli Lilly and Company, priority 1999, dated 2004).

Experiments:
cyclin D1-cdk4 [1] = biological target: T1, cyclin D1-cdk4 (Homo sapiens, UniProt P11802); assay: Assay of Cyclin D1-cdk4 kinase activity with the ING peptide as substrate; format: biochemical; conditions: 200 uM ING peptide, 300 uM ATP, 60 minutes, room temperature
Experimental: Assay of Cyclin D1-cdk4 kinase activity with the ING Peptide as Substrate
The cyclin D1-cdk4 kinase activity of a compound was assayed by preparing a 100 ul reaction at the following concentrations: 35 mM Hepes pH 7.0, 10 mM MgCl2, 300 uM ATP, 200 uM ING peptide, 1.0 uCi of γ-^33P-ATP, 4.34 ug of cyclin D-cdk4 enzyme, 4% DMSO, and various concentrations of inhibitor. The reaction was incubated at room temperature (about 74° F.) for 60 minutes, and then terminated by the addition of 100 ul of 10% phosphoric acid. Next, the reaction was filtered through a Millipore Multiscreen-PH Plate—Catalog number MAPH NOB 10, and the plate was washed 2 times with 320 ul each of 0.5% phosphoric acid, followed by the addition of 100 ul of scintillation fluid and quantitation on a Packard Instruments, Top Count, scintillation counter.

[2] = system: HCT-116 or NCI H460 cells; assay: Cell growth inhibition assay (MTT); format: cell-based; conditions: 72 h drug exposure
Experimental: Cell Growth Inhibition Assay The MTT assay was used to measure growth inhibitory activity (Schultz, R. M., et. al. Oncology Res. 5, 223-228, 1993). […] Basically, 1000 HCT-116 or NCI H460 cells were added per well to 96-well flat-bottom plates in 100-ul RPMI 1640 medium containing 10% dialyzed fetal bovine serum. The plates were incubated for 24 h prior to addition of test compounds. A stock solution (10 mM) was prepared in DMSO and serially diluted in medium. Compound dilutions were added to triplicate wells, and the plates were incubated for 72 hours.

[3] = system: HCT-116 and NCI H460 cell lines; assay: Cell cycle analysis using flow cytometry; format: cell-based; conditions: compound at 1x IC50 and 3x IC50, 24 hours, DNA histogram analysis
Experimental: Cell Cycle Analysis Using Flow Cytometry
The HCT-116 and NCI H460 cell lines were seeded in 75 cm^2 flasks at 5×10^5 cells/25 ml RPMI 1640 medium containing 10% dialyzed fetal bovine serum. They were incubated for 24 hours. […] The cells were subsequently harvested and the protocol (Robinson, J. P. and Darzynkiewicz, Z. Current Protocols in Cytometry. 1997) for staining was followed. DNA histogram analysis was performed using ModFit LT(Verity House).

[4] = system: Ser-780 pRb phosphorylation in HCT116 cells; assay: Inhibition of Rb phosphorylation assay; format: cell-based, Human; conditions: 1x, 2x and 3x IC50, 24 hours, immunoblot
Experimental: Inhibition of Rb Phosphorylation Assay
Human HCT116 colon carcinoma cell line was purchased from American Tissue Culture Collection (Rockville, Md.) and maintained as monolayer in RPMI-1640 with L-Glutamine and 25 mM HEPES supplemented with 10% fetal bovine serum in a 37° C. incubator with a 10% CO2 atmosphere. The detection of mycoplasm in cultured cells was performed using Mycoplasma Rapid Detection System (TaKaRa Shuzo Co. Ltd., Shiga, Japan) every 2-3 months and the cells were found consistently negative throughout these experiments. The Rb phosphorylation assay was done be plating 4×10^5 cells/well in 6-well plates. […] At the end of the incubation period the mediumj was removed and the cells were washed twice with cold PBS containing 1 mM sodium orthovanadate (Na3VO4). […] Protein concentration was determined by the Bio-Rad DC protein assay (Bio-Rad, Hercules, Calif.). […] Proteins were detected by capturing image of the membrane using Quantity One Software on a Fluor-S multi-Imager (Bio-Rad, Hercules, Calif.) in a linear range. Specific bands were quantified using Quantity One Software. […] Results are expressed as a percentage inhibition of Ser-780 pRb phosphorylation in drug treated cells versus control DMSO treated cells.

protein kinase C = conditions: cited from earlier work
protein kinase A = conditions: cited from earlier work
cyclin D1-cdk4 [5] = biological target: T1, cyclin D1-cdk4; assay: Assay of Cyclin D1-cdk4 kinase activity with the Rb21 protein as substrate; format: biochemical; conditions: 5 ug Rb21 protein, 30 uM ATP, 60 minutes, room temperature; read-out: Kinase Activity with Rb2l
Experimental: Assay of Cyclin D1-cdk4 Kinase Activity with the Rb21 Protein as Substrate
The cyclin D1-cdk4 kinase activity of a compound was assayed by preparing a 100 ul reaction at the following concentrations: 20 mM Hepes pH 7.0, 10 mM MgCl2, 30 uM ATP, 5 ug of Rb21 protein (Santa Cruz Biotech, Catalog # sc-4112), 1.0 uCi of γ-^33P-ATP, 1.09 ug of cyclin D-cdk4 enzyme, 4% DMSO, and various concentrations of inhibitor. The reaction was incubated at room temperature (about 74° F.) for 60 minutes, and then terminated by the addition of 100 ul of 25% trichloroacetic acid. Next, the reaction was filtered through a Millipore Multiscreen-FC Plate—Catalog number MAFC NOB 10, and the plate was washed 2 times with 320 ul each of 10% trichloroacetic acid, followed by the addition of 100 ul of scintillation fluid and quantitation on a Packard Instruments, Top Count, scintillation counter.

T1 sequence (P11802 whole entry): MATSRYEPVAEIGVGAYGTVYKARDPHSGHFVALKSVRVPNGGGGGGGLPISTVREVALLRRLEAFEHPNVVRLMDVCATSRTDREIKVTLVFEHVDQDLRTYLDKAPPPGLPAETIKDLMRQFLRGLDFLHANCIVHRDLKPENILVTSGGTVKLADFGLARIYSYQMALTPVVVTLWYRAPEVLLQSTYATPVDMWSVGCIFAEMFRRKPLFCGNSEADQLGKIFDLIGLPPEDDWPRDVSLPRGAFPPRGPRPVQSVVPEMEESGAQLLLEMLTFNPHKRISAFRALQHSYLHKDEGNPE
T1 sequence (P24385 whole entry partner): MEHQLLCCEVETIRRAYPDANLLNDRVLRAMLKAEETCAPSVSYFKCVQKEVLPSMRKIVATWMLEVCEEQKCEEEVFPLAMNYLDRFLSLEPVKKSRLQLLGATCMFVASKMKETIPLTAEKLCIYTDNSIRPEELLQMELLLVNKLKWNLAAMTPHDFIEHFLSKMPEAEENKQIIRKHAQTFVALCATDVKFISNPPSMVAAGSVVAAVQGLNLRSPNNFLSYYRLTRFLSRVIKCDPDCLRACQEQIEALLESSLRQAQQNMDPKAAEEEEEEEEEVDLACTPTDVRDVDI

Structure (SMILES)	IC50 (cyclin D1-cdk4 [1]) [nM]	also measured
CC1(C)Cc2cccc3c4c5c(c6c7cccc8c7n(c6c4n(c23)C1)CCNC8)C(=O)NC5=O	51	
CC1(C)CCn2c3c1cc(F)cc3c1c3c(c4c5cccc6c5n(c4c12)CCNC6)C(=O)NC3=O	413	
CC1(C)Cc2cccc3c(C4=C(c5cn6c7c(cccc57)CNCC6)C(=O)NC4=O)cn(c23)C1	621	
CC1(C)CCn2cc(C3=C(c4cn5c6c(cccc46)CNCC5)C(=O)NC3=O)c3cc(F)cc1c32	186	
CC1(C)CCn2cc(C3=C(c4cn5c6c(cccc46)CNCC5)C(=O)NC3=O)c3cccc1c32	537	
CC1(C)CCc2cccc3c(C4=C(c5cn6c7c(cccc57)CNCC6)C(=O)NC4=O)cn1c23	349	
Cl.O=C1NC(=O)c2c1c1c3cccc4c3n(c1c1c2c2cccc3c2n1CCNC3)CCC4 [Example 5]		cell growth inhibition [2]: inhibit cell growth; cell cycle arrest [3]: arrest cells in the G1 phase of the cell cycle; inhibition of Ser-780 pRb phosphorylation [4]: inhibit Rb (retinoblastoma protein) phosphorylation
CN1CC[C@H](c2c(O)cc(O)c3c(=O)cc(-c4ccccc4Cl)oc23)[C@H](O)C1 [Flavopiridol]		concentration at which protein kinase C is inhibited (protein kinase C): ≥ 10 μM/L; concentration at which protein kinase A is inhibited (protein kinase A): ≥ 10 μM/L
O=C1NC(=O)c2c1c1c3cccc4c3n(c1c1c2c2cccc3c2n1CCCNC3)CCC4 [drawing 39]	605	
O=C1NC(=O)c2c1c1c3cccc4c3n(c1c1c2c2cccc3c2n1CCNC3)CCC4 [drawing 40]	35.4	
O=C1NC(=O)C(c2cn3c4c(cccc24)NCCC3)=C1c1cn2c3c(cccc13)CCC2 [drawing 43]	143	
O=C1NC(=O)c2c1c1c3cccc4c3n(c1c1c2c2cccc3c2n1CCCNC3)CCC4 [drawing 48]		IC50 (cyclin D1-cdk4 [5]): 336 nM
O=C1NC(=O)c2c1c1c3cccc4c3n(c1c1c2c2cccc3c2n1CCNC3)CCC4 [drawing 49]		IC50 (cyclin D1-cdk4 [5]): 5.8 nM
O=C1NC(=O)C(c2cn3c4c(cccc24)NCCC3)=C1c1cn2c3c(cccc13)CCC2 [drawing 50]		IC50 (cyclin D1-cdk4 [5]): 196 nM
